Measured values from patent US10421774B2 (priority 2016, dated 2019).
pEC50: −log10 of the molar value. Read-outs that look alike come from different tables or passages of the source.

Legend:
Test in all cases: microbe, parasite or virus in culture
Assay type in all cases: cell-based, HIV-1
[1] = system: T332S/V362I/Pr R41G virus; conditions: for pEC50: Human immunodeficiency virus 1, MT2, read-out: T332S/V362I/pr41G EC50
Outline: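 Renilla luciferase NL4-3 reporter virus (Gag P373S background) carrying Gag T332S/V362I plus protease R41G, inoculum normalized by luciferase signal, infected MT-2 cells (10,000/well). Compounds 3-fold diluted, 1% DMSO final. After 4–5 days at 37 °C, virus yield measured as Renilla luciferase activity in a multiple-cycle assay.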

[2] = system: A364V site directed mutant virus; conditions: for pEC50: Human immunodeficiency virus 1, MT2, read-out: A364V EC50
Outline: (§1)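 Multiple-cycle assay in MT-2 cells infected with Renilla luciferase NL4-3 (Gag P373S background) carrying site-directed Gag A364V or V370A/ΔT371 changes, inocula normalized by luciferase signal. 10,000 cells/well, 3-fold compound dilutions, 1% DMSO, 4–5 days at 37°C; yield read as Renilla luciferase.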

[3] = system: gag V370A/ΔT371 virus; conditions: for pEC50: Human immunodeficiency virus 1, MT2, read-out: V370A/ΔT371 EC50
Outline: as §1

[4] = system: NLRepRlucP373S recombinant wild type (WT) virus
Outline: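 MT-2 cells infected with NLRepRlucP373S Renilla luciferase reporter virus (NL4-3, Gag P373S), inocula normalized by luciferase signal; compounds 3-fold serially diluted, 1% DMSO final. Virus yield read by Renilla luciferase after 4-5 days at 37 °C. EC50/EC90 from median effect equation; background = signal at NFV 3 μM.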

[5] = Human immunodeficiency virus 1, MT2, read-out: WT EC50

C=C(C)[C@@H]1CC[C@]2(NCC[C@]3(O)CC[C@@H](S(C)(=O)=O)CC3)CC[C@]3(C)[C@H](CC[C@@H]4[C@@]5(C)CC=C(C6=CC[C@@](COc7ncccc7C#N)(C(=O)O)CC6)C(C)(C)[C@@H]5CC[C@]43C)[C@@H]12 [Example A3, (S)-1-(((3-cyanopyridin-2-yl)oxy)methyl)-4-((1R,3aS,5aR,5bR,7aR,11aS,11bR,13aR,13bR)-3a-((2-((1s,4R)-1-hydroxy-4-(methylsulfonyl)cyclohexyl)ethyl)amino)-5a,5b,8,8,11a-pentamethyl-1-(prop-1-en-2-yl)-2,3,3a,4,5,5a,5b,6,7,7a,8,11,11a,11b,12,13,13a,13b-octadecahydro-1H-cyclopenta[a]chrysen-9-yl)cyclohex-3-enecarboxylic acid]
pEC50 [1]: 8.30 | EC90 ([1]; Human immunodeficiency virus 1, read-out: T332S/V362I/prR41G EC90): 17 nM | pEC50 [2]: 7.96 | EC90 ([2]; Human immunodeficiency virus 1, read-out: A364V EC90): 166 nM | pEC50 [3]: 8.30 | EC90 ([3]; Human immunodeficiency virus 1, read-out: V370A/ΔT371 EC90): 15 nM | pEC50 [4, 5]: 8.40 | pEC50 ([4]; Human immunodeficiency virus 1, read-out: WT EC50): 8.40

C=C(C)[C@@H]1CC[C@]2(NCCN3CCS(=O)(=O)CC3)CC[C@]3(C)[C@H](CC[C@@H]4[C@@]5(C)CC=C(C6=CC[C@@](COc7cc(C(N)=O)ccn7)(C(=O)O)CC6)C(C)(C)[C@@H]5CC[C@]43C)[C@@H]12 [Example 30, (S)-1-(((4-carbamoylpyridin-2-yl)oxy)methyl)-4-((1R,3aS,5aR,5bR,7aR,11aS,11bR,13aR,13bR)-3a-((2-(1,1-dioxidothiomorpholino)ethyl)amino)-5a,5b,8,8,11a-pentamethyl-1-(prop-1-en-2-yl)-2,3,3a,4,5,5a,5b,6,7,7a,8,11,11a,11b,12,13,13a,13b-octadecahydro-1H-cyclopenta[a]chrysen-9-yl)cyclohex-3-ene-1-carboxylic acid]
pEC50 [1]: > 7.30 | pEC50 [2]: > 7.30 | pEC50 [3]: > 7.30 | pEC50 [4, 5]: > 7.30

C=C(C)[C@@H]1CC[C@]2(NCCN3CCS(=O)(=O)CC3)CC[C@]3(C)[C@H](CC[C@@H]4[C@@]5(C)CC=C(C6=CCC(COc7nsc8ccccc78)(C(=O)O)CC6)C(C)(C)[C@@H]5CC[C@]43C)[C@@H]12 (stereo partly shown) [Example 8]
pEC50 [1]: > 7.30 | pEC50 [2]: > 7.30 | pEC50 [3]: > 7.30 | pEC50 [4, 5]: > 7.30

C=C(C)[C@@H]1CC[C@]2(NCCN3CCS(=O)(=O)CC3)CC[C@]3(C)[C@H](CC[C@@H]4[C@@]5(C)CC=C(C6=CCC(COc7cccc(C#N)n7)(C(=O)O)CC6)C(C)(C)[C@@H]5CC[C@]43C)[C@@H]12 (stereo partly drawn) [Example 39, 1-(((6-cyanopyridin-2-yl)oxy)methyl)-4-((1R,3aS,5aR,5bR,7aR,11aS,11bR,13aR,13bR)-3a-((2-(1,1-dioxidothiomorpholino)ethyl)amino)-5a,5b,8,8,11a-pentamethyl-1-(prop-1-en-2-yl)-2,3,3a,4,5,5a,5b,6,7,7a,8,11,11a,11b,12,13,13a,13b-octadecahydro-1H-cyclopenta[a]chrysen-9-yl)cyclohex-3-ene-1-carboxylic acid]
pEC50 [1]: < 7.30 | pEC50 [2]: > 7.30 | pEC50 [3]: < 7.30 | pEC50 [4, 5]: 7.85

C=C(C)[C@@H]1CC[C@]2(NCCN3CCS(=O)(=O)CC3)CC[C@]3(C)[C@H](CC[C@@H]4[C@@]5(C)CC=C(C6=CCC(CCOc7nccc(C)n7)(C(=O)O)CC6)C(C)(C)[C@@H]5CC[C@]43C)[C@@H]12 (stereo partly drawn) [Example A26, 4-((1R,3aS,5aR,5bR,7aR,11aS,11bR,13aR,13bR)-3a-((2-(1,1-dioxidothiomorpholino)ethyl)amino)-5a,5b,8,8,11a-pentamethyl-1-(prop-1-en-2-yl)-2,3,3a,4,5,5a,5b,6,7,7a,8,11,11a,11b,12,13,13a,13b-octadecahydro-1H-cyclopenta[a]chrysen-9-yl)-1-(2-((4-methylpyrimidin-2-yl)oxy)ethyl)cyclohex-3-ene-1-carboxylic acid]
pEC50 [1]: < 7.30 | pEC50 [2]: < 7.30 | pEC50 [3]: < 7.30 | pEC50 [4, 5]: 8.30

C=C(C)[C@@H]1CC[C@]2(NCCN3CCS(=O)(=O)CC3)CC[C@]3(C)[C@H](CC[C@@H]4[C@@]5(C)CC=C(C6=CCC(COc7nsnc7C)(C(=O)O)CC6)C(C)(C)[C@@H]5CC[C@]43C)[C@@H]12 (stereo partly drawn) [Example 5, 4-((1R,3aS,5aR,5bR,7aR,11aS,11bR,13aR,13bR)-3a-((2-(1,1-dioxidothiomorpholino)ethyl)amino)-5a,5b,8,8,11a-pentamethyl-1-(prop-1-en-2-yl)-2,3,3a,4,5,5a,5b,6,7,7a,8,11,11a,11b,12,13,13a,13b-octadecahydro-1H-cyclopenta[a]chrysen-9-yl)-1-(((4-methyl-1,2,5-thiadiazol-3-yl)oxy)methyl)cyclohex-3-ene-1-carboxylic acid]
pEC50 [1]: 7.82 | pEC50 [2]: 7.82 | pEC50 [3]: 7.82 | pEC50 [4, 5]: 8.52

C=C(C)[C@@H]1CC[C@]2(NC[C@@](C)(O)CO)CC[C@]3(C)[C@H](CC[C@@H]4[C@@]5(C)CC=C(C6=CC[C@](COc7ncccc7C(N)=O)(C(=O)O)CC6)C(C)(C)[C@@H]5CC[C@]43C)[C@@H]12 [Example A14, (R)-1-(((3-carbamoylpyridin-2-yl)oxy)methyl)-4-((1R,3aS,5aR,5bR,7aR,11aS,11bR,13aR,13bR)-3a-(((R)-2,3-dihydroxy-2-methylpropyl)amino)-5a,5b,8,8,11a-pentamethyl-1-(prop-1-en-2-yl)-2,3,3a,4,5,5a,5b,6,7,7a,8,11,11a,11b,12,13,13a,13b-octadecahydro-1H-cyclopenta[a]chrysen-9-yl)cyclohex-3-enecarboxylic acid]
pEC50 [1]: 6.96 | pEC50 [2]: 6.94 | pEC50 [3]: 6.96 | pEC50 [4, 5]: 8.30

C=C(C)[C@@H]1CC[C@]2(NCCN3CCS(=O)(=O)CC3)CC[C@]3(C)[C@H](CC[C@@H]4[C@@]5(C)CC=C(C6=CCC(CCOc7cc(C)sn7)(C(=O)O)CC6)C(C)(C)[C@@H]5CC[C@]43C)[C@@H]12 (stereo partly drawn) [Example A21, 4-((1R,3aS,5aR,5bR,7aR,11aS,11bR,13aR,13bR)-3a-((2-(1,1-dioxidothiomorpholino)ethyl)amino)-5a,5b,8,8,11a-pentamethyl-1-(prop-1-en-2-yl)-2,3,3a,4,5,5a,5b,6,7,7a,8,11,11a,11b,12,13,13a,13b-octadecahydro-1H-cyclopenta[a]chrysen-9-yl)-1-(2-((5-methylisothiazol-3-yl)oxy)ethyl)cyclohex-3-ene-1-carboxylic acid]
pEC50 [1]: 7.74 | pEC50 [2]: 7.77 | pEC50 [3]: 7.74 | pEC50 [4, 5]: 8.52

C=C(C)[C@@H]1CC[C@]2(NC[C@@H](O)C(=O)O)CC[C@]3(C)[C@H](CC[C@@H]4[C@@]5(C)CC=C(C6=CC[C@](COc7ncccc7C(=O)O)(C(=O)O)CC6)C(C)(C)[C@@H]5CC[C@]43C)[C@@H]12 [Example A16, 2-(((R)-1-carboxy-4-((1R,3aS,5aR,5bR,7aR,11aS,11bR,13aR,13bR)-3a-(((R)-2-carboxy-2-hydroxyethyl)amino)-5a,5b,8,8,11a-pentamethyl-1-(prop-1-en-2-yl)-2,3,3a,4,5,5a,5b,6,7,7a,8,11,11a,11b,12,13,13a,13b-octadecahydro-1H-cyclopenta[a]chrysen-9-yl)cyclohex-3-en-1-yl)methoxy)nicotinic acid]
pEC50 [1]: 7.17 | pEC50 [2]: 6.86 | pEC50 [3]: 7.17 | pEC50 [4, 5]: 8.00

C=C(C)[C@@H]1CC[C@]2(NCCN3CCS(=O)(=O)CC3)CC[C@]3(C)[C@H](CC[C@@H]4[C@@]5(C)CC=C(C6=CCC(COc7ccc(C#N)cn7)(C(=O)O)CC6)C(C)(C)[C@@H]5CC[C@]43C)[C@@H]12 (stereo partly drawn) [Example 38, 1-(((5-cyanopyridin-2-yl)oxy)methyl)-4-((1R,3aS,5aR,5bR,7aR,11aS,11bR,13aR,13bR)-3a-((2-(1,1-dioxidothiomorpholino)ethyl)amino)-5a,5b,8,8,11a-pentamethyl-1-(prop-1-en-2-yl)-2,3,3a,4,5,5a,5b,6,7,7a,8,11,11a,11b,12,13,13a,13b-octadecahydro-1H-cyclopenta[a]chrysen-9-yl)cyclohex-3-ene-1-carboxylic acid]
pEC50 [1]: 6.63 | pEC50 [2]: 7.54 | pEC50 [3]: 6.63 | pEC50 [4, 5]: 8.70

C=C(C)[C@@H]1CC[C@]2(NCCN3CCS(=O)(=O)CC3)CC[C@]3(C)[C@H](CC[C@@H]4[C@@]5(C)CC=C(C6=CCC(COc7nnnn7C)(C(=O)O)CC6)C(C)(C)[C@@H]5CC[C@]43C)[C@@H]12 (stereo partly shown) [Example 13]
pEC50 [1]: 8.15 | pEC50 [2]: 7.62 | pEC50 [3]: 8.15 | pEC50 [4, 5]: 8.70

C=C(C)[C@@H]1CC[C@]2(NCCN3CCS(=O)(=O)CC3)CC[C@]3(C)[C@H](CC[C@@H]4[C@@]5(C)CC=C(C6=CCC(COc7ccccn7)(C(=O)O)CC6)C(C)(C)[C@@H]5CC[C@]43C)[C@@H]12 (stereo partly shown) [Example 1]
pEC50 [1]: 7.85 | pEC50 [2]: 7.96 | pEC50 [3]: 7.77 | pEC50 [4, 5]: 8.52
